Experimental findings from ChEMBL document CHEMBL1131986, “Structure-activity relationships of biphenyl tetrazoles as metallo-beta-lactamase inhibitors” (Bioorg Med Chem Lett, 1999) are described below.

Each structure is given as a SMILES string.

For one test, the target named is T1, Dipeptidase 1 (Sus scrofa, UniProt P22412).
T1 sequence (P22412 whole entry): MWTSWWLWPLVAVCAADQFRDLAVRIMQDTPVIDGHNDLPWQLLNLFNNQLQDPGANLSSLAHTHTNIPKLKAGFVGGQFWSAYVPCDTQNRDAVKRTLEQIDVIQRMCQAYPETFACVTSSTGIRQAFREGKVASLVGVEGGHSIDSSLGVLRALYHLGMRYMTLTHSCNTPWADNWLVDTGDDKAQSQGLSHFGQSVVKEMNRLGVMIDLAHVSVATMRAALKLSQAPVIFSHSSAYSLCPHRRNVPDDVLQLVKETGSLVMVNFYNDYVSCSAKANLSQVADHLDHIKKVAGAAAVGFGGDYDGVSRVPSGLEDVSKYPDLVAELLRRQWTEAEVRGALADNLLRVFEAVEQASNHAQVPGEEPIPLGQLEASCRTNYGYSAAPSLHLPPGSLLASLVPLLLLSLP
Kind of test: In vitro apparent inhibition constant of porcine renal Dehydropeptidase-1. The conditions noted are these: read-out: Ki app.

In the next test the target is Beta-lactamase (Pseudomonas aeruginosa, UniProt Q79MP6). Put plainly: Inhibition of metallo-beta-lactamase (MBL) from Pseudomonas aeruginosa mediated by the plasmid-borne IMP-1 enzyme.
The target of test [1] is Metallo-beta-lactamase type 2 (Bacteroides fragilis, UniProt P25910). Kind of test: Inhibition of metallo-beta-lactamase (MBL) from Bacteroides fragilis.
Chain of Metallo-beta-lactamase type 2 (P25910 whole entry): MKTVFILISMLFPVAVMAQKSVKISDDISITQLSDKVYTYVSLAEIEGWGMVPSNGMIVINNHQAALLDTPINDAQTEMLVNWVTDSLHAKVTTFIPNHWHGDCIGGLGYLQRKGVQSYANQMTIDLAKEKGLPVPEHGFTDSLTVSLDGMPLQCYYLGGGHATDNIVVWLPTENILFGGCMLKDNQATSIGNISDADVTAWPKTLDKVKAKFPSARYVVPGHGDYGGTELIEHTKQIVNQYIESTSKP

Chain of Beta-lactamase (Q79MP6 whole entry): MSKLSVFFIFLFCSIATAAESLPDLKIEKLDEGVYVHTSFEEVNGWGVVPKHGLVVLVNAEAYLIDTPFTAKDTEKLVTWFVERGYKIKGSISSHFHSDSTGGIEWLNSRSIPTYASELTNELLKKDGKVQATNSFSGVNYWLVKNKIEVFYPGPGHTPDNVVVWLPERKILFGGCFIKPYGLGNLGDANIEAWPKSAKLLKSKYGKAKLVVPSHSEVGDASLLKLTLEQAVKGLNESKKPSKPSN

`CCCCc1nn(-c2cccc(Cl)c2)c(C(=O)O)c1Cc1ccc(-c2ccccc2-c2nn[nH]n2)cc1`: at Dipeptidase 1, the Ki came out at 425 µM. Moreover, the IC50 is more than 200 µM on Beta-lactamase and 190 µM in test [1].

For `CCCCc1nn(-c2ccccc2C(F)(F)F)c(C(=O)OCC)c1Cc1ccc(-c2ccccc2-c2nnn[nH]2)cc1`, the concentration for half-maximal inhibition (IC50) against Beta-lactamase is more than 200 µM; in test [1] it was 22 µM.

Regarding `CCCCc1nn(-c2ccc(Cl)cc2)c(C(=O)O)c1Cc1ccc(-c2ccccc2-c2nn[nH]n2)cc1`, the Ki on Dipeptidase 1 was 430 µM. Further, the half-maximal inhibitory concentration (IC50) was more than 200 µM against Beta-lactamase and 230 µM in test [1].

On to `CCCCc1nn(-c2ccccc2-c2ccccc2)c(C(=O)O)c1Cc1ccc(-c2ccccc2-c2nnn[nH]2)cc1`, for which, at Dipeptidase 1, the Ki worked out at 420 µM. The IC50 is 65 µM at Beta-lactamase and 180 µM in test [1].

As to `CCCCc1nn(-c2cccc(Cl)c2)c(C(=O)OCC)c1Cc1ccc(-c2ccccc2-c2nn[nH]n2)cc1`, at Dipeptidase 1, the Ki was 450 µM. In addition, the IC50 against Beta-lactamase was determined as 76 µM; in test [1], 170 µM.

As for `CCCCc1nn(-c2cc(Cl)ccc2Cl)c(C(=O)O)c1Cc1ccc(-c2ccccc2-c2nnn[nH]2)cc1`, at Dipeptidase 1, the Ki amounted to 380 µM. Also, the IC50 against Beta-lactamase was more than 200 µM; in test [1], 50 µM.

`CCCCc1nn(-c2ccc(Cl)cc2Cl)c(C(=O)O)c1Cc1ccc(-c2ccccc2-c2nn[nH]n2)cc1`: the Ki on Dipeptidase 1 stood at 400 µM. The concentration for half-maximal inhibition (IC50) is more than 200 µM at Beta-lactamase and 80 µM in test [1].

As for `CCCCc1nn(-c2ccccc2Cl)c(C(=O)O)c1Cc1ccc(-c2ccccc2-c2nn[nH]n2)cc1`, the Ki at Dipeptidase 1 is 350 µM. The IC50 at Beta-lactamase is more than 200 µM; in test [1] it was 30 µM.

`CCCCc1nn(-c2ccccc2)c(C(=O)O)c1Cc1ccc(-c2ccccc2-c2nn[nH]n2)cc1`: at Dipeptidase 1, the Ki was 590 µM. The figures for the IC50 (on Beta-lactamase; in test [1]) were more than 200 µM and 200 µM, respectively.

As to `CCCCc1nn(-c2ccccc2[N+](=O)[O-])c(C(=O)OCC)c1Cc1ccc(-c2ccccc2-c2nnn[nH]2)cc1`, the values for the IC50 (at Beta-lactamase; in test [1]) were more than 200 µM and 18 µM, respectively.

As to `CCCCc1nn(-c2ccc(Cl)cc2Cl)c(C(=O)OCC)c1Cc1ccc(-c2ccccc2-c2nnn[nH]2)cc1`, the Ki at Dipeptidase 1 is 480 µM. For the same molecule, the IC50 came to 66 µM against Beta-lactamase and 100 µM in test [1].

On to `CCCCc1nn(-c2cccc(Cl)c2Cl)c(C(=O)O)c1Cc1ccc(-c2ccccc2-c2nnn[nH]2)cc1`, for which, at Dipeptidase 1, the Ki came out at 310 µM. For the same molecule, the half-inhibitory concentration (IC50) was more than 200 µM against Beta-lactamase and 37 µM in test [1].

In the case of `CCCCc1nn(-c2ccccc2-c2ccccc2)c(C(=O)OCC)c1Cc1ccc(-c2ccccc2-c2nn[nH]n2)cc1`, the figures for the half-inhibitory concentration (IC50) (against Beta-lactamase; in test [1]) were 150 µM and more than 200 µM, respectively.

In the case of `CCCCc1nn(-c2ccccc2C(F)(F)F)c(C(=O)O)c1Cc1ccc(-c2ccccc2-c2nnn[nH]2)cc1`, the Ki at Dipeptidase 1 worked out at 380 µM. For the same molecule, the IC50 at Beta-lactamase was more than 200 µM; in test [1], 40 µM.

As for `CCCCc1nn(-c2c(Cl)cc(Cl)cc2Cl)c(C(=O)O)c1Cc1ccc(-c2ccccc2-c2nnn[nH]2)cc1`, the Ki at Dipeptidase 1 is 800 µM. For the same molecule, the results for the IC50 (on Beta-lactamase; in test [1]) were more than 200 µM and 33 µM, respectively.

As for `CCCCc1nn(-c2ccccc2Cl)c(C(=O)OCC)c1Cc1ccc(-c2ccccc2-c2nnn[nH]2)cc1`, at Dipeptidase 1, the Ki stood at 250 µM. Besides, the 50% inhibitory concentration (IC50) worked out at 200 µM at Beta-lactamase and 170 µM in test [1].

In the case of `CCCCc1nn(-c2ccccc2C)c(C(=O)O)c1Cc1ccc(-c2ccccc2-c2nn[nH]n2)cc1`, at Dipeptidase 1, the Ki came out at 470 µM. The IC50 on Beta-lactamase is more than 200 µM; in test [1], 80 µM.

Take `CCCCc1nn(-c2cccc(Cl)c2Cl)c(C(=O)OCC)c1Cc1ccc(-c2ccccc2-c2nnn[nH]2)cc1`: the Ki at Dipeptidase 1 is 170 µM. For the same molecule, the IC50 on Beta-lactamase is 175 µM; in test [1], 100 µM.

As to `CCCCc1nn(-c2ccccc2C)c(C(=O)OCC)c1Cc1ccc(-c2ccccc2-c2nn[nH]n2)cc1`, the IC50 against Beta-lactamase was more than 200 µM; in test [1], 70 µM.

On to `CCCCc1nn(-c2c(Cl)cc(Cl)cc2Cl)c(C(=O)OCC)c1Cc1ccc(-c2ccccc2-c2nn[nH]n2)cc1`, for which the Ki at Dipeptidase 1 amounted to 450 µM. The IC50 against Beta-lactamase was more than 200 µM; in test [1], 80 µM.

For the molecule `CCCCc1nn(-c2ccccc2)c(C(=O)OCC)c1Cc1ccc(-c2ccccc2-c2nnn[nH]2)cc1`, at Dipeptidase 1, the Ki is 250 µM. Also, the IC50 against Beta-lactamase is more than 200 µM; in test [1], 100 µM.

As for `CCCCc1nn(-c2c(Cl)cccc2Cl)c(C(=O)O)c1Cc1ccc(-c2ccccc2-c2nnn[nH]2)cc1`, the Ki on Dipeptidase 1 worked out at 500 µM. Also, the IC50 at Beta-lactamase was more than 200 µM; in test [1] it was 100 µM.

On to `CCCCc1nn(-c2ccccc2[N+](=O)[O-])c(C(=O)O)c1Cc1ccc(-c2ccccc2-c2nnn[nH]2)cc1`, for which the Ki on Dipeptidase 1 came to 640 µM. Moreover, the half-maximal inhibitory concentration (IC50) on Beta-lactamase was more than 200 µM; in test [1] it was 120 µM.

Regarding `CCCCc1nn(-c2ccc(Cl)cc2)c(C(=O)OCC)c1Cc1ccc(-c2ccccc2-c2nn[nH]n2)cc1`, the Ki on Dipeptidase 1 is 380 µM. In addition, the figures for the IC50 (on Beta-lactamase; in test [1]) were 70 µM and 290 µM, respectively.

As for `CCCCc1nn(-c2cc(Cl)ccc2Cl)c(C(=O)OCC)c1Cc1ccc(-c2ccccc2-c2nn[nH]n2)cc1`, the Ki at Dipeptidase 1 is 80 µM. In addition, the half-maximal inhibitory concentration (IC50) was 60 µM at Beta-lactamase and 100 µM in test [1].
